# Results: patent publication US9458153B2, “Dihydroquinolizinones for the treatment and prophylaxis of hepatitis B virus infection” (Hoffmann-La Roche Inc., priority 2014, dated 2016)
# pIC50: −log10 of the molar value.
# Tested on: HBsAg
# Assay: HBsAg assay (chemiluminescence immunoassay of secreted HBsAg in HepG2.2.15 culture supernatant)
# Format: cell-based, HBV
# Conditions: HepG2.2.15 cells, CLIA kit
# Description: HepG2.2.15 cells (Acs et al. Proc Natl Acad Sci USA, 84, (1987), 4641-4), a constitutively HBV-expressing cell line were cultured in DMEM+Glutamax-I medium (Invitrogen, Carlsbad, Calif., USA), supplemented with 10% fetal bovine serum (Invitrogen) and G418 (Invitrogen) at a final concentration of 200 mg/L and maintained in 5% CO2 at 37° C.
# HepG2.2.15 cells were seeded in duplicate into white, 96-well plates at 1.5×10^4 cells/well. The cells were treated with a three-fold serial dilution series of the compounds in DMSO. The final DMSO concentration in all wells was 1% and DMSO was used as no drug control.
# The HBsAg chemiluminescence immunoassay (CLIA) kit (Autobio Diagnostics Co., Zhengzhou, China, Catalog number: CL0310-2) was used to measure the levels of secreted HBV antigens semi-quantitatively. For the detection 50 μL/well culture supernatant was used and HBsAg was quantified using HBsAg chemiluminescence immunoassay (CLIA) kit (Autobio Diagnostics Co., Zhengzhou, China, Catalog number: CL0310-2), 50 μL of the supernatant was transferred to the CLIA assay plate and 50 μL of enzyme conjugate reagent was added into each well. The plates were sealed and gently agitated for 1 hour at room temperature. The supernatant-enzyme-mixture was discarded and wells were washed 6 times with 300 μL of PBS. The residual liquid was removed by plating the CLIA plate right side down on absorbent tissue paper. 25 μL of substrates A and B were added to each well. Luminance was measured using a luminometer (Mithras LB 940 Multimode Microplate Reader) after 10 minutes incubation. Dose-response curves were generated and the IC50 value was extrapolated by using the E-WorkBook Suite (ID Business Solutions Ltd., Guildford, UK).
# The compounds of the present invention were tested for their capacity to inhibit HBsAg as described herein.
# [1] = HBsAg secretion reduced by 50% vs no drug control
# [2] = Hepatitis B virus, HepG2.2.15, HBsAg secretion reduced by 50% vs no drug control
Compound,pIC50 [1],pIC50 [2]
"CCC1Cc2cc(OCc3ccccc3)c(C)cc2-c2cc(=O)c(C(=O)O)cn21 (single isomer, unassigned; (-)) [Example 117, (−)-9-benzyloxy-6-ethyl-10-methyl-2-oxo-6,7-dihydrobenzo[a]quinolizine-3-carboxylic acid]",6.04,–
"CCCOc1cc2c(cc1OC)-c1cc(=O)c(C(=O)O)cn1C(CC)C2 (single isomer, unassigned; (-)) [Example 80, (−)-6-ethyl-10-methoxy-2-oxo-9-propoxyl-6,7-dihydrobenzo[a]quinolizine-3-carboxylic acid]",6.72,–
"COc1cc2c(cc1OC)-c1cc(=O)c(C(=O)O)cn1C(CC(C)C)C2 (stereo not drawn) [Example 101, 6-isobutyl-9,10-dimethoxy-2-oxo-6,7-dihydrobenzo[a]quinolizine-3-carboxylic acid]",7.35,–
"CCOc1ccc(Br)c2c1-c1cc(=O)c(C(=O)O)cn1C(CC)C2 (stereo not drawn) [Example 94, 8-bromo-11-ethoxy-6-ethyl-2-oxo-6,7-dihydrobenzo[a]quinolizine-3-carboxylic acid]",–,6.39
"COc1cc2c(cc1OCC(F)(F)F)CC(C(C)C)n1cc(C(=O)O)c(=O)cc1-2 (single isomer, unassigned; (+)) [Example 127, (+)-6-isopropyl-10-methoxy-2-oxo-9-(2,2,2-trifluoroethoxy)-6,7-dihydrobenzo[a]quinolizine-3-carboxylic acid]",8.10,–
"COCCCCOc1cc2c(cc1OC)-c1cc(=O)c(C(=O)O)cn1C(C(C)C)C2 (stereo not drawn) [Example 148, 6-isopropyl-10-methoxy-9-(4-methoxybutoxy)-2-oxo-6,7-dihydrobenzo[a]quinolizine-3-carboxylic acid]",–,8.30
"CCC1Cc2cc(OCC(F)F)c(OC)cc2-c2cc(=O)c(C(=O)O)cn21 (single isomer, unassigned; (+)) [Example 46, (+)-9-(2,2-difluoroethoxy)-6-ethyl-10-methoxy-2-oxo-6,7-dihydrobenzo[a]quinolizine-3-carboxylic acid]",7.36,–
"CC1Cc2cc(N(C)Cc3ccccc3)ccc2-c2cc(=O)c(C(=O)O)cn21 (stereo not drawn) [Example 63, 9-[benzyl(methyl)amino]-6-methyl-2-oxo-6,7-dihydrobenzo[a]quinolizine-3-carboxylic acid]",–,5.14
"COCCOc1cc2c(cc1OC)-c1cc(=O)c(C(=O)O)cn1C(C1(C)CC1)C2 (stereo not drawn) [Example 134, 10-methoxy-9-(2-methoxyethoxy)-6-(1-methylcyclopropyl)-2-oxo-6,7-dihydrobenzo[a]quinolizine-3-carboxylic acid]",8.15,–
"COc1cc2c(cc1OCC(C)(C)CO)CC(C(C)(C)C)n1cc(C(=O)O)c(=O)cc1-2 (single isomer, unassigned; (+)) [Example 150, (+)-6-tert-butyl-9-(3-hydroxy-2,2-dimethyl-propoxy)-10-methoxy-2-oxo-6,7-dihydrobenzo[a]quinolizine-3-carboxylic acid]",8.70,–
"CCOCCOc1cc2c(cc1OC)-c1cc(=O)c(C(=O)O)cn1C(CC)C2 (stereo not drawn) [Example 42, 9-(2-ethoxyethoxy)-6-ethyl-10-methoxy-2-oxo-6,7-dihydrobenzo[a]quinolizine-3-carboxylic acid]",7.24,–
"COCCOc1cc2c(cc1OC)-c1cc(=O)c(C(=O)O)cn1C(C(C)C)C2 (single isomer, unassigned; (-)) [Example 130, (−)-6-isopropyl-10-methoxy-9-(2-methoxyethoxy)-2-oxo-6,7-dihydrobenzo[a]quinolizine-3-carboxylic acid]",5.81,–
"COc1cc2c(cc1OC)-c1cc(=O)c(C(=O)O)cn1C(C(C)C)C2 (stereo not drawn) [Example 98, 6-isopropyl-9,10-dimethoxy-2-oxo-6,7-dihydrobenzo[a]quinolizine-3-carboxylic acid]",7.80,–
"COCCCOc1cc2c(c(Cl)c1F)-c1cc(=O)c(C(=O)O)cn1C(C(C)C)C2 (stereo not drawn) [Example 137, 11-chloro-10-fluoro-6-isopropyl-9-(3-methoxypropoxy)-2-oxo-6,7-dihydrobenzo[a]quinolizine-3-carboxylic acid]",7.82,–
"CC[C@@H]1Cc2cc(OC)c(OC)cc2-c2cc(=O)c(C(=O)O)cn21 [Example 71, (6R)-(+)-6-ethyl-9,10-dimethoxy-2-oxo-6,7-dihydrobenzo[a]quinolizine-3-carboxylic acid]",–,7.43
"COCCOc1cc2c(cc1Cl)-c1cc(=O)c(C(=O)O)cn1C(C(C)C)C2 (single isomer, unassigned; (-)) [Example 109, (−)-10-chloro-6-isopropyl-9-(2-methoxyethoxy)-2-oxo-6,7-dihydrobenzo[a]quinolizine-3-carboxylic acid]",7.21,–
"CCC1Cc2cc(OCCOC)c(OC)cc2-c2cc(=O)c(C(=O)O)cn21 (single isomer, unassigned; (-)) [Example 29, (−)-6-ethyl-10-methoxy-9-(2-methoxyethoxy)-2-oxo-6,7-dihydrobenzo[a]quinolizine-3-carboxylic acid]",5.71,–
"COc1cc2c(cc1OCC(C)(C)CO)CC(C(C)C)n1cc(C(=O)O)c(=O)cc1-2 (single isomer, unassigned; (+)) [Example 145, (+)-9-(3-hydroxy-2,2-dimethyl-propoxy)-6-isopropyl-10-methoxy-2-oxo-6,7-dihydrobenzo[a]quinolizine-3-carboxylic acid]",8.22,–
"COc1cc2c(cc1OCCN)CC(C(C)(C)C)n1cc(C(=O)O)c(=O)cc1-2 (stereo not drawn) [Example 177, 9-(2-aminoethoxy)-6-tert-butyl-10-methoxy-2-oxo-6,7-dihydrobenzo[a]quinolizine-3-carboxylic acid]",–,5.86
"CCC1Cc2cc(OCCC3CCCCC3)c(OC)cc2-c2cc(=O)c(C(=O)O)cn21 (stereo not drawn) [Example 16, 9-(2-cyclohexylethoxy)-6-ethyl-10-methoxy-2-oxo-6,7-dihydrobenzo[a]quinolizine-3-carboxylic acid]",–,7.82
"COc1cc2c(cc1OCCCCCCO)CC(C(C)(C)C)n1cc(C(=O)O)c(=O)cc1-2 (single isomer, unassigned; (-)) [Example 157, (−)-6-tert-butyl-9-(6-hydroxyhexoxy)-10-methoxy-2-oxo-6,7-dihydrobenzo[a]quinolizine-3-carboxylic acid]",6.77,–
"COCCCOc1cc2c(cc1OC)-c1cc(=O)c(C(=O)O)cn1C(CC(F)(F)F)C2 (single isomer, unassigned; (-)) [Example 201, (−)-10-methoxy-9-(3-methoxypropoxy)-2-oxo-6-(2,2,2-trifluoroethyl)-6,7-dihydrobenzo[a]quinolizine-3-carboxylic acid]",4.85,–
"CCOc1cc2c(cc1O)-c1cc(=O)c(C(=O)O)cn1C(C)C2 (stereo not drawn) [Example 75, 9-ethoxy-6-methyl-10-hydroxy-2-oxo-6,7-dihydrobenzo[a]quinolizine-3-carboxylic acid]",–,5.95
"COCCCOc1cc2c(cc1OC)-c1cc(=O)c(C(=O)O)cn1C(CC(F)(F)F)C2 (single isomer, unassigned; (+)) [Example 200, (+)-10-methoxy-9-(3-methoxypropoxy)-2-oxo-6-(2,2,2-trifluoroethyl)-6,7-dihydrobenzo[a]quinolizine-3-carboxylic acid]",7.62,–
"CCC1Cc2cc(C)c(C)cc2-c2cc(=O)c(C(=O)O)cn21 (stereo not drawn) [Example 112, 6-ethyl-9,10-dimethyl-2-oxo-6,7-dihydrobenzo[a]quinolizine-3-carboxylic acid]",–,6.85
"CCNCCOCCCOc1cc2c(cc1OC)-c1cc(=O)c(C(=O)O)cn1C(C(C)(C)C)C2 (stereo not drawn) [Example 179, 6-tert-butyl-9-[3-[2-(ethylamino)ethoxy]propoxy]-10-methoxy-2-oxo-6,7-dihydrobenzo[a]quinolizine-3-carboxylic acid]",–,7.42
"COc1cc2c(cc1OCCCOCCN)CC(C(C)(C)C)n1cc(C(=O)O)c(=O)cc1-2 (stereo not drawn) [Example 178, 9-[3-(2-aminoethoxy)propoxy]-6-tert-butyl-10-methoxy-2-oxo-6,7-dihydrobenzo[a]quinolizine-3-carboxylic acid]",–,7.20
"CCC1Cc2cc(OCC3CCOCC3)c(OC)cc2-c2cc(=O)c(C(=O)O)cn21 (single isomer, unassigned; (+)) [Example 49, (+)-6-ethyl-10-methoxy-2-oxo-9-(tetrahydropyran-4-ylmethoxy)-6,7-dihydrobenzo[a]quinolizine-3-carboxylic acid]",7.82,–
"COCCOc1cc2c(cc1OC)-c1cc(=O)c(C(=O)O)cn1C(C1(C)CC1)C2 (single isomer, unassigned; (-)) [Example 136, (−)-10-methoxy-9-(2-methoxyethoxy)-6-(1-methylcyclopropyl)-2-oxo-6,7-dihydrobenzo[a]quinolizine-3-carboxylic acid]",6.40,–
"CCC1Cc2cc(OC)c(C3CC3)cc2-c2cc(=O)c(C(=O)O)cn21 (single isomer, unassigned; (-)) [Example 91, (−)-10-cyclopropyl-6-ethyl-9-methoxy-2-oxo-6,7-dihydrobenzo[a]quinolizine-3-carboxylic acid]",6.30,–
